“Also recorded” adds a separate entry of the source.
Key:
KOPR = details: 2.5 mg/kg; s.c. (Xia et al., 2007); cited from earlier work
μ opioid receptor (MOPR) [1] = molecular target: T1, μ opioid receptor (MOPR) (Mus musculus, UniProt P42866); test: DAMGO concentration-dependent [35S]GTPγS binding in caudate-putamen and nucleus accumbens membrane preparations; type: biochemical, mice
T1 construct: The caudate-putamen and nucleus accumbens were microdissected and the tissue was homogenized; from tissue; host or cells: mouse brain: caudate-putamen and nucleus accumbens membrane preparations
Experimental: (§1) MOPR activity was assayed by using [^35S]GTPγS binding on membrane preparations using a modification of the previously described method^23. The mice were sacrificed by cervical dislocation and the brain was dissected rapidly. The caudate-putamen and nucleus accumbens were microdissected and the tissue was homogenized using teflon pistol in Eppendorf tubes (10 strokes) in 300 μl of homogenization buffer containing 25 mM Tris/pH7.4, 5 mM EDTA and 0.1 mM PMSF and kept on ice. Homogenate was diluted to 2.5 ml using the homogenization buffer and centrifuged at ˜350,000 g for 30 min. After washing 3 times with 50 mM Tris-HCl/pH7.4, the pellets were re-suspended in 50 mM Tris-HCl/pH7.4 containing 0.32 M sucrose, passed through a 26.5 G needle for 3 times, frozen in dry ice/ethanol and stored in −80° C. until use. […] Bound and free [^35S]GTPγS were separated by filtration with GF/B filters under reduced pressure. Radioactivity on filters was determined by liquid scintillation counting. Nonspecific binding was subtracted from total stimulated and basal binding. […] MOPR activity was reported as % of baseline (unstimulated) activity: [Disintegrations per minute (DPM) with agonist stimulated binding−DPM of nonspecific binding)/(DPM basal (without agonist)−DPM nonspecific)×100. Protein content of membranes was determined by the BCA method of^24 with bovine serum albumin as the standard.

Adult C57BL/6 mice = test: Conditioned place preference (CPP); type: in vivo; details: for MPH-induced place preference / CPP score compared to the saline group: naltrexone 10 mg/kg (highest dose) prior to MPH 7.5 mg/kg; for place preference (CPP): naltrexone 1 or 10 mg/kg alone; for effect on high dose MPH-induced CPP (rewarding effects): naltrexone prior to MPH, naltrexone dose not stated
Experimental: Photobeams wired to a computer can record animal location (time spent in the chamber). The central chamber has a smooth floor with gray color. Each preference chamber is either white with a mesh floor or black with a bar floor. The CPP procedure included three phases. (1) The pre-conditioning phase was performed on day 1 (two sessions daily, AM and PM). In each preconditioning session, mice were initially placed in the central gray chamber for 2 min and then allowed free access to the white and black chambers for 20 min. The time spent in each chamber was recorded. […] (2) The conditioning phase was carried out on each of days 2 to 6 [two sessions daily, AM and PM one each for vehicle-paired (saline as vehicle) and drug-paired (cocaine or MPH as drugs) sessions]. In the vehicle-paired session mice were injected with saline (i.p.) and placed in the central gray chamber for 2 min (to isolate injection effect to the central chamber) and then confined to the vehicle-paired chamber for 30 min. In the drug-paired session, the mice were given the drug in the central chamber, retained there for 2 min and then confined for 30 min in the drug-paired chamber. […] The time spent in each chamber was recorded. The difference between time spent in the drug-paired chamber during the test phase and pre-conditioning phases was calculated as the CPP score.

μ opioid receptor (MOPR) [2] = molecular target: T1, μ opioid receptor (MOPR); test: DAMGO-stimulated [35S]GTPγS binding (MOPR activity) in caudate-putamen and nucleus accumbens membranes of drug-treated mice from the CPP assay; type: in vivo; details: for MOPR activity (DAMGO-stimulated [35S]GTPγS binding) compared to saline: caudate-putamen and nucleus accumbens, 10 μM DAMGO
Experimental: as §1

mice = test: Locomotor activity measured during the CPP assay; type: in vivo; details: for MPH-induced increase in locomotor activity: naltrexone 1, 5 or 10 mg/kg 30 min prior to MPH 7.5 mg/kg
Experimental: In control groups, saline or naltrexone at each of the doses was administered alone (without MPH).

[3] = test system: frontal cortical dopamine levels; details: cited from earlier work
rats = details: 0.5 mg/kg MPH, rats (Paine et al., 2007); cited from earlier work
[4] = cited from earlier work
healthy human volunteers = details: studies that evaluated detection/likeability (Kollins et al., 2001); cited from earlier work
[5] = MPH 7.5 mg/kg vs cocaine 10 mg/kg
[6] = 0.75 mg/kg dose (Balcioglu et al., 2009)
[7] = naltrexone 1, 5 or 10 mg/kg prior to MPH 7.5 mg/kg

T1 sequence (P42866 whole entry): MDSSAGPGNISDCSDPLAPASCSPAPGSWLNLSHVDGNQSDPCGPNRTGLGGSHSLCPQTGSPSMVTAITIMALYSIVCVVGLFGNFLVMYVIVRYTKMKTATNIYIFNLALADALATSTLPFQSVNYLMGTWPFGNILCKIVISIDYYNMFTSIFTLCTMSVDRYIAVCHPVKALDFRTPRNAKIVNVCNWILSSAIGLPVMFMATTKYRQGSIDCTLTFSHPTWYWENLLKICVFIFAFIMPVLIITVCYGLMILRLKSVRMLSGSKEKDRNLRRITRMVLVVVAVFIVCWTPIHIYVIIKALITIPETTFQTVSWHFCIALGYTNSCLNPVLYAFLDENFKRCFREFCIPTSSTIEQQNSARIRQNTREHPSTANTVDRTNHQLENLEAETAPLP

**Q.** With `CC(N)Cc1ccccc1` (stereo not drawn) [Amphetamine] as the compound, how does the “KOPR signaling in the nucleus accumbens” value (KOPR) read?
**A.** The value was “modulates KOPR signaling in the nucleus accumbens in a region-specific manner”.

**Q.** With `C[C@@H](NC(=O)[C@@H](N)Cc1ccc(O)cc1)C(=O)NCC(=O)N(C)[C@@H](Cc1ccccc1)C(=O)NCCO` [DAMGO] as the compound, how does the “concentration at which maximal [35S]GTPγS binding was reached” value (μ opioid receptor (MOPR) [1]) read?
**A.** The value was 10 µM.

**Q.** And the “maximal [35S]GTPγS binding” value (μ opioid receptor (MOPR) [1]; at 10 μM DAMGO)?
**A.** Its value is 1.75 fold of the basal level.

**Q.** Which results are given for `COC(=O)C(c1ccccc1)C1CCCCN1` (stereo not drawn) [MPH, Methylphenidate]?
**A.** place preference: time spent in the drug-paired chamber, test vs pre-conditioning sessions (Adult C57BL/6 mice; MPH 0.75 mg/kg (low, therapeutic dose) i.p.): did not; also recorded: neither induce place preference; also recorded: do not; also recorded: no statistically significant difference; place preference: time spent in the drug-paired chamber, test vs pre-conditioning sessions (Adult C57BL/6 mice; MPH 7.5 mg/kg (high, supra-therapeutic dose) i.p., alone): showed significant place preference; also recorded: induced CPP; also recorded: produce CPP; also recorded: induce place preference; also recorded: produce place preference; also recorded: spent significantly longer period of time in the drug-paired chamber; also recorded: produced significant increase; CPP score compared to the saline and low dose MPH groups (Adult C57BL/6 mice; MPH 7.5 mg/kg i.p.): significantly higher CPP scores; CPP score, high dose MPH group vs cocaine group (Adult C57BL/6 mice; [5]): no statistically significant difference; MOPR activity (μ opioid receptor (MOPR) [2]; 7.5 mg/kg MPH to 25-day old mice for 5 days, expected): MOPR upregulation; MOPR activity (DAMGO-stimulated [35S]GTPγS binding) compared to saline (μ opioid receptor (MOPR) [2]; MPH 0.75 mg/kg i.p.): did not produce significant enhancements; MOPR activity (DAMGO-stimulated [35S]GTPγS binding) compared to saline (μ opioid receptor (MOPR) [2]; MPH 7.5 mg/kg i.p.): significantly greater; also recorded: activate MOPR; also recorded: upregulation of striatal MOPR; also recorded: upregulate MOPR activity; also recorded: significantly higher MOPR activity; MOPR activity, high dose MPH group vs cocaine group (μ opioid receptor (MOPR) [2]; [5]): no significant difference; locomotor activity compared to saline (mice; MPH 0.75 mg/kg): no significant effect; locomotor activity compared to saline (mice; MPH 7.5 mg/kg): significantly increased locomotor activity; also recorded: increased locomotor activity significantly; time after MPH administration at which increases in frontal cortical dopamine levels occur [3, 6]: ~60 min; effect on neurotransmitter levels ([3]; low doses of MPH (literature)): selectively affect neurotransmitter levels in the frontal cortex; accuracy in 5-CSRT assay (rats): increased accuracy; serum and brain concentrations of d-methylphenidate ([4]; 0.75 mg/kg MPH, adult mice (ref. 19)): equivalent to its serum and brain (estimated) concentrations in ADHD patients taking therapeutic doses of MPH; clinically relevant serum levels of D-MPH [4, 6]: 6 to 10 ng/mL; time brain levels remain high [4, 6]: ~30 min; time to reach clinically relevant serum levels of D-MPH [4, 6]: ≤ 15 min; studies reporting subjective responses to oral MPH (healthy human volunteers): 18 (72%) of 25 studies

**Q.** With `O=C1CC[C@@]2(O)[C@H]3Cc4ccc(O)c5c4[C@@]2(CCN3CC2CC2)[C@H]1O5` [naltrexone] as the compound, how does the “naltrexone dose needed to block reinforcing properties of MPH” value (Adult C57BL/6 mice; 7.5 mg/kg MPH, preliminary findings) read?
**A.** Its value is “at least 5 mg/kg”.

**Q.** What about the “MPH-induced place preference / CPP score compared to the saline group” value (Adult C57BL/6 mice) of the same compound?
**A.** The value was “not significantly different from that for the saline group”.

**Q.** And the “MPH-induced place preference / CPP score compared to the saline group” value (Adult C57BL/6 mice; listed as Naltrexone)?
**A.** The value was “blocking it completely”.

**Q.** And the “time spent in the drug-paired chamber, PC vs Test sessions” value (Adult C57BL/6 mice; naltrexone 1, 5 or 10 mg/kg administered prior to MPH 7.5 mg/kg)?
**A.** Its value is “significant difference between PC and Test sessions”.

**Q.** And the “CPP score compared to MPH administered alone” value (Adult C57BL/6 mice; [7])?
**A.** The value was “significantly decreased the CPP score”.

**Q.** What about the “dose dependence of the decrease in the CPP score” value (Adult C57BL/6 mice; [7]) of the same compound?
**A.** The value was “dose-dependent”.

**Q.** And the “place preference (CPP)” value (Adult C57BL/6 mice)?
**A.** Its value is “did not induce CPP”.

**Q.** What about the “place preference (CPP)” value (Adult C57BL/6 mice; listed as Naltrexone) of the same compound?
**A.** Its value is “did not affect CPP”.

**Q.** What about the “MPH-induced CPP / CPP score compared to MPH administered alone” value (Adult C57BL/6 mice; naltrexone 5 or 10 mg/kg 30 min prior to MPH 7.5 mg/kg) of the same compound?
**A.** The value was “significantly lower; also recorded: blocks MPH-induced conditioned place preference (CPP)”.

**Q.** And the “effect on high dose MPH-induced CPP (rewarding effects)” value (Adult C57BL/6 mice)?
**A.** The value was “can significantly attenuate rewarding effects of MPH”.

**Q.** And the “effect on high dose MPH-induced CPP (rewarding effects)” value (Adult C57BL/6 mice; listed as Naltrexone)?
**A.** Its value is “prevents MPH-induced CPP; also recorded: attenuates high dose MPH-induced place preference”.

**Q.** What about the “MPH-induced increase in locomotor activity” value (mice) of the same compound?
**A.** Its value is “not affected”.

**Q.** What about the “MPH-induced increase in locomotor activity” value (mice; listed as Naltrexone) of the same compound?
**A.** The value was “did not block the MPH-induced increases in locomotor activity”.

**Q.** And the locomotor activity (mice; naltrexone 1, 5 or 10 mg/kg alone)?
**A.** Its locomotor activity is “did not affect locomotor activity”.

**Q.** Which “CPP score compared to the MPH only group” value (Adult C57BL/6 mice; MPH 7.5 mg/kg + raclopride) does the source give for `CCN1CCC[C@H]1CNC(=O)c1c(O)c(Cl)cc(Cl)c1OC` [raclopride] here?
**A.** Its value is “did not show significant differences”.

Reference: patent US11045465B2, “Methods and compositions to prevent addiction” (FLORIDA STATE UNIVERSITY RESEARCH FOUNDATION, INC., priority 2009, dated 2021)
